Assay results from PubChem BioAssay AID248 (DTP/NCI, 2004).
“And” between values parts separate entries of the source, which are not always exact repeats. Identical values can stand only once. Inconclusive results and toxic doses are left out. No stated cut-off is given here; in the data, active means T/C of 150% or more; inactive means T/C below 125%.

System: L1210 leukemia ip in BDF1 mice, survival T/C
Experiment: NCI In Vivo Anticancer Drug Screen. Data for tumor model L1210 Leukemia (intraperitoneal) in B6D2F1 (BDF1) mice
Conditions: endpoint: mean survival time, higher = longer survival
Method in brief: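 Transplanted-tumor mice were given test agent; controls received vehicle only. Survival readings from the two groups were divided (treated over control).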

[1] = dose: 50.0 mg/kg/injection, schedule: Q01DX001 (ip), vehicle: Klucel (hydroxypropylcellulose) (HPC)
[2] = dose: 100.0 mg/kg/injection, schedule: Q04DX003 (ip), vehicle: saline with Tween-80
[3] = dose: 200.0 mg/kg/injection, schedule: Q04DX003 (ip), vehicle: saline with Tween-80
[4] = dose: 400.0 mg/kg/injection, schedule: Q04DX003 (ip), vehicle: saline with Tween-80
[5] = dose: 100.0 mg/kg/injection, schedule: Q04DX003 (ip), vehicle: Klucel (hydroxypropylcellulose) (HPC)
[6] = dose: 200.0 mg/kg/injection, schedule: Q04DX003 (ip), vehicle: Klucel (hydroxypropylcellulose) (HPC)
[7] = dose: 400.0 mg/kg/injection, schedule: Q04DX003 (ip), vehicle: Klucel (hydroxypropylcellulose) (HPC)
[8] = dose: 100.0 mg/kg/injection, schedule: Q01DX009 (ip), vehicle: Klucel (hydroxypropylcellulose) (HPC)
[9] = dose: 100.0 mg/kg/injection, schedule: Q01DX009 (ip), vehicle: saline with Tween-80
[10] = dose: 200.0 mg/kg/injection, schedule: Q01DX009 (ip), vehicle: Klucel (hydroxypropylcellulose) (HPC)
[11] = dose: 200.0 mg/kg/injection, schedule: Q01DX009 (ip), vehicle: saline with Tween-80
[12] = dose: 400.0 mg/kg/injection, schedule: Q01DX009 (ip), vehicle: Klucel (hydroxypropylcellulose) (HPC)
[13] = dose: 100.0 mg/kg/injection, schedule: Q04DX002 (ip), vehicle: Klucel (hydroxypropylcellulose) (HPC)
[14] = dose: 200.0 mg/kg/injection, schedule: Q04DX002 (ip), vehicle: Klucel (hydroxypropylcellulose) (HPC)
[15] = dose: 100.0 mg/kg/injection, schedule: Q01DX001 (ip), vehicle: saline
[16] = dose: 200.0 mg/kg/injection, schedule: Q01DX001 (ip), vehicle: saline

Measured: T/C

COc1ccc(CC2c3cc(OC)c(OC)cc3CC[N+]2(C)C)cc1OC (stereo unspecified)
inactive: dose: 12.5 mg/kg/injection, schedule: Q01DX009 (ip), vehicle: saline sonified 103 % of control | dose: 25.0 mg/kg/injection, schedule: Q01DX009 (ip), vehicle: saline sonified 108 % of control | [1] 95 % of control | dose: 50.0 mg/kg/injection, schedule: Q01DX009 (ip), vehicle: saline sonified 102 % of control

O=C(NC1CCCCC1)C1C2CC3OC(=O)C1C3C2 (stereo unspecified)
inactive: [2] 101 % of control | dose: 100.0 mg/kg/injection, schedule: Q04DX003 (ip), vehicle: saline 104 % of control | [3] 97 % of control | dose: 200.0 mg/kg/injection, schedule: Q04DX003 (ip), vehicle: saline 98 % of control | [4] 101 % of control | dose: 400.0 mg/kg/injection, schedule: Q04DX003 (ip), vehicle: saline 104 % of control

CC(=O)C(CCS(C)(=O)=O)(CCS(C)(=O)=O)c1ccccc1
inactive: [5] 112 % of control | [6] 108 % of control | [7] 100 % of control

O=C(/C=C/c1ccccc1O)c1ccccc1
inactive: [8] 98 % of control | [9] 110 % of control | [5] 113 % of control | [2] 94 % of control | [10] 100 % of control | [11] 101 % of control | [6] 113 % of control | [3] 102 % of control | [12] 90 % of control | dose: 400.0 mg/kg/injection, schedule: Q01DX009 (ip), vehicle: saline with Tween-80 102 % of control | [7] 103 % of control | [4] 96 % of control

COC(=O)C(O)(C#CC(C)(C)C)c1ccccc1 (stereo unspecified)
inactive: dose: 100.0 mg/kg/injection, schedule: Q01DX001 (ip), vehicle: other 86 % of control | dose: 200.0 mg/kg/injection, schedule: Q01DX001 (ip), vehicle: other 91 % of control | dose: 400.0 mg/kg/injection, schedule: Q01DX001 (ip), vehicle: other 96 % of control

O=c1cc(NCCc2ccccc2)[nH]c(=O)[nH]1
inactive: dose: 100.0 mg/kg/injection, schedule: Q01DX001 (ip), vehicle: Klucel (hydroxypropylcellulose) (HPC) 93 % of control | dose: 200.0 mg/kg/injection, schedule: Q01DX001 (ip), vehicle: Klucel (hydroxypropylcellulose) (HPC) 95 % of control | dose: 400.0 mg/kg/injection, schedule: Q01DX001 (ip), vehicle: Klucel (hydroxypropylcellulose) (HPC) 105 % of control

Cc1ccc(N=Nc2ccc(C)cc2NC(=O)c2cccc3ccccc23)cc1
inactive: [8] 92 % of control | [13] 104 % of control | [10] 100 % of control | [14] 96 % of control | [12] 95 % of control | dose: 400.0 mg/kg/injection, schedule: Q04DX002 (ip), vehicle: Klucel (hydroxypropylcellulose) (HPC) 93 % of control

CNC(=O)CS(=O)(=O)c1ccc(C)cc1
inactive: [15] 97 % of control | [16] 95 % of control | dose: 400.0 mg/kg/injection, schedule: Q01DX001 (ip), vehicle: saline 93 % of control

COc1c(Cl)c(Cl)c(Cl)c(Cl)c1NC(C)=O
inactive: dose: 100.0 mg/kg/injection, schedule: Q01DX001 (ip), vehicle: acetone 102 % of control | dose: 200.0 mg/kg/injection, schedule: Q01DX001 (ip), vehicle: acetone 100 % of control | dose: 400.0 mg/kg/injection, schedule: Q01DX001 (ip), vehicle: acetone 94 % of control

CSc1ccc(NC(=O)c2ccc(Cl)cc2)cc1
inactive: dose: 100.0 mg/kg/injection, schedule: Q04DX002 (ip), vehicle: saline with Tween-80 100 % of control | dose: 200.0 mg/kg/injection, schedule: Q04DX002 (ip), vehicle: saline with Tween-80 100 % of control | dose: 400.0 mg/kg/injection, schedule: Q04DX002 (ip), vehicle: saline with Tween-80 92 % of control

CCOC(=O)C1=C(C)NC(C)=C(C(=O)OCC)C1c1ccccc1[N+](=O)[O-]
inactive: dose: 6.25 mg/kg/injection, schedule: Q01DX009 (ip), vehicle: saline with Tween-80 97 % of control | dose: 12.5 mg/kg/injection, schedule: Q01DX009 (ip), vehicle: saline with Tween-80 108 % of control | dose: 25.0 mg/kg/injection, schedule: Q01DX009 (ip), vehicle: saline with Tween-80 98 % of control and 105 % of control | [2] 90 % of control

C=CS(=O)CCCCCCCC (stereo unspecified)
inactive: [13] 102 % of control | [14] 102 % of control

CCCC[P+](CCCC)(CCCC)Cc1ccc([N+](=O)[O-])cc1
inactive: dose: 12.5 mg/kg/injection, schedule: Q01DX001 (ip), vehicle: Klucel (hydroxypropylcellulose) (HPC) 97 % of control | dose: 12.5 mg/kg/injection, schedule: Q04DX002 (ip), vehicle: Klucel (hydroxypropylcellulose) (HPC) 106 % of control | dose: 25.0 mg/kg/injection, schedule: Q01DX001 (ip), vehicle: Klucel (hydroxypropylcellulose) (HPC) 101 % of control | dose: 25.0 mg/kg/injection, schedule: Q01DX009 (ip), vehicle: Klucel (hydroxypropylcellulose) (HPC) 99 % of control | dose: 25.0 mg/kg/injection, schedule: Q04DX002 (ip), vehicle: Klucel (hydroxypropylcellulose) (HPC) 106 % of control | [1] 101 % of control | dose: 50.0 mg/kg/injection, schedule: Q04DX002 (ip), vehicle: Klucel (hydroxypropylcellulose) (HPC) 87 % of control

O=C1C=CC(=O)C(SCC(O)CO)=C1 (stereo unspecified)
inactive: dose: 9.5 mg/kg/injection, schedule: Q01DX001 (ip), vehicle: other 94 % of control | dose: 19.0 mg/kg/injection, schedule: Q01DX001 (ip), vehicle: other 95 % of control | dose: 38.0 mg/kg/injection, schedule: Q01DX001 (ip), vehicle: other 100 % of control

CN(C)c1ccc(-c2ccc(N(C)C)cc2)cc1
inactive: dose: 50.0 mg/kg/injection, schedule: Q01DX001 (ip), vehicle: carboxymethylcellulose (CMC) 100 % of control | dose: 100.0 mg/kg/injection, schedule: Q01DX001 (ip), vehicle: carboxymethylcellulose (CMC) 100 % of control | dose: 200.0 mg/kg/injection, schedule: Q01DX001 (ip), vehicle: carboxymethylcellulose (CMC) 96 % of control | dose: 400.0 mg/kg/injection, schedule: Q01DX001 (ip), vehicle: carboxymethylcellulose (CMC) 106 % of control

CN(C)N=Nc1c(Br)cc(Br)cc1Br
inactive: dose: 50.0 mg/kg/injection, schedule: Q01DX009 (ip), vehicle: saline with Tween-80 87 % of control | [9] 102 % of control | [11] 105 % of control

CC1(C)OC(=O)C(C(=O)O)C1c1ccccc1 (stereo unspecified)
inactive: [15] 97 % of control | [16] 94 % of control
